From patent US7300940B2, “Integrin α-v β-3 antagonists for use in imaging and therapy” (The United States of America, as represented by the …, priority 2004, dated 2007)
Structures can show the parent of a compound that is named as a salt.

Molecular target: T1, Integrin protein αvβ3 (Homo sapiens, UniProt P05106+P06756)
T1 construct: purchased Chemicon International, Inc., Temecula, Calif., USA
Experiment: Receptor/ligand challenge assay of biotinylated vitronectin binding to plate-coated integrin αvβ3 (chemiluminescence)
Conditions: for IC50: competition with biotinylated vitronectin for coated αvβ3, 3 hours at room temperature, quadruplicate, 0.00316-1000 nM; for IC50 Ratio Relative to Hood et al.: ratio of IC50 versus the Hood et al. antagonist in the same assay
Protocol: Receptor/Ligand Challenge Assay of Vitronectin to Integrin αvβ3 Receptor Antagonists in the Presence of Test Compounds
The title compounds of Examples 1 through 8 were tested for their activity as αvβ3 receptor antagonists by the procedure described below, and the buffers, solutions, and reagents used in the procedure are listed following the procedure.
Procedure. Integrin protein αvβ3 (purchased from Chemicon International, Inc., Temecula, Calif., USA) was diluted to a final concentration of 1 μg/mL in coating buffer (2.1). The αvβ3 coating solution was applied to 96-well polystyrene microtiter plate at 100 μL/well. (A total of 10 mL is needed to coat one 96-well plate). The plates were then sealed and allowed to incubate at 4° C. for at least 8 hours. The coating solution was then removed and the plate was washed two times with 300 μL/well of washing solution (2.2). Blocking buffer (2.3) was then added in amounts of 150 μL/well and the plate was incubated at room temperature for 2 hours. The blocking buffer was then removed, and the integrin antagonistic substances (117 μL of 1.25 μM (in H2O)) were added in quadruplicate to column 1 of the twelve well columns of the plate. For example, 117 μL of 1.25 μM 4-[2-(3,4,5,6-tetrahydropyrimidin-2 ylamino)ethyloxy]benzoyl-2-(S)-aminoethylsulfonylamino-β-alanine, the antagonist described by Hood et al. referenced above was added to column 1, rows A-D and 117 μL of 1.25 μM of the antagonist of Example 1 was added to column 1, […]. Binding buffer (2.4) (80 μL) was added to the remaining wells of the plate (column 2-12, rows A-F). A multichannel pipet was used to transfer 37 μL aliquots of the solutions from column 1 to column 2. The solutions were then mixed in the column 2 wells by drawing them up and down in the pipet 15 times. Solutions (37 μL) were then transferred from column 2 to column 3 and mixed by being drawn up and down in the pipet 15 times. The process was repeated across the columns to column 12, and the last 37 μL of solution was discarded. Biotinylated Vitronectin solution (2.5) was then added (20 μL/well, 0.1 μg/well). The final volume was 100 μL total per well, and the concentrations (nM) of analytes in columns 1-12 respectively were as follows: 1000, 316, 100, 31.6, 10.0, 3.16, 1.00, 0.316, 0.100, 0.0316, 0.01, and 0.00316.
The plate was agitated for thorough mixing of the solutions, then covered and incubated at room temperature for 3 hours. The solutions were then discarded and the plate was washed 3 times with 170 μL/well of washing solution (2.2). NeutrAvidin-HRP solution (2.6) was then added (100 μL/well, 0.01 μg/well), cover, and the plate was incubated at room temperature for 30 minutes. The solutions in the wells were then discarded and the plate was washed 3 times with 170 μL/well of washing solution (2.2). Chemiluminescent Substrate solution (2.7) was then added to the plate (100 μL/well), and the luminescence was read using the Wallac Victor 1420 Multilabel Counter (PerkinElmer, Inc., Boston, Mass., USA). A plot of average luminescence vs. concentration was generated using KaleidaGraph (version 3.5) software and the IC50 values were calculated using the following formula: Max−Max*M0^m1/(m2^m1+M0^m1);m1=1;m2=1, where Max is the maximum luminescence observed.
The results are expressed in the table below, both in terms of the 50% inhibitory concentration (IC50) of each test compound and the ratio of 50% inhibitory concentration (IC50) of the test compound to that of the Hood et al. antagonist 4-[2-(3,4,5,6-tetrahydropyrimidin-2-ylamino)ethyloxy]benzoyl-2-(S)-aminoethylsulfonylamino-β-alanine.

T1 sequence (P06756 31-889 limits assumed): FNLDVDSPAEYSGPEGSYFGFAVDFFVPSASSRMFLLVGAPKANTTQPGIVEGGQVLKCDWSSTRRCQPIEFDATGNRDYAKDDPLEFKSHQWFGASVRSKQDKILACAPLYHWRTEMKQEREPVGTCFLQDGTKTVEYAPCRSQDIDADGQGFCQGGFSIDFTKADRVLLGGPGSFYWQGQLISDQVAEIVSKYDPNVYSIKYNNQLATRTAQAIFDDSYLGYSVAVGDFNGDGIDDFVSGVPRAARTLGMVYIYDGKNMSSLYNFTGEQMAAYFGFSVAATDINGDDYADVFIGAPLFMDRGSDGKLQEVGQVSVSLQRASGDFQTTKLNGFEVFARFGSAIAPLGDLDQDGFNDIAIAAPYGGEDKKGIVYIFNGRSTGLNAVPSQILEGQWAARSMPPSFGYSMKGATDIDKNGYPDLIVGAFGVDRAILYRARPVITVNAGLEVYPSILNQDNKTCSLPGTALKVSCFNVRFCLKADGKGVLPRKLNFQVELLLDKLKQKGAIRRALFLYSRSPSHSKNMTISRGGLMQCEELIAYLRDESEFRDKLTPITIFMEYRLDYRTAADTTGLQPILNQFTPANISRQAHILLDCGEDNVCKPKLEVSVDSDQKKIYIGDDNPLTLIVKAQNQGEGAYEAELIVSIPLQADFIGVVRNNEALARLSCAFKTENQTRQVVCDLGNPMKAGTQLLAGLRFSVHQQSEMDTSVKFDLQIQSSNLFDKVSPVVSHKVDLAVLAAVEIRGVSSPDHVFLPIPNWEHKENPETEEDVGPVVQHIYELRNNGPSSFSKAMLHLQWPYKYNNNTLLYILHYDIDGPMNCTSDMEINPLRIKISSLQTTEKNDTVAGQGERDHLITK
T1 sequence (P06756 891-1048 limits assumed): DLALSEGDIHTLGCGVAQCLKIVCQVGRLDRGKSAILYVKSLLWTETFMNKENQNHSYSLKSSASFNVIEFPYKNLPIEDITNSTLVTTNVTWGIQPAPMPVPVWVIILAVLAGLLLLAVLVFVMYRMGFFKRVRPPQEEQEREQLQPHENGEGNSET
T1 sequence (P05106 27-788): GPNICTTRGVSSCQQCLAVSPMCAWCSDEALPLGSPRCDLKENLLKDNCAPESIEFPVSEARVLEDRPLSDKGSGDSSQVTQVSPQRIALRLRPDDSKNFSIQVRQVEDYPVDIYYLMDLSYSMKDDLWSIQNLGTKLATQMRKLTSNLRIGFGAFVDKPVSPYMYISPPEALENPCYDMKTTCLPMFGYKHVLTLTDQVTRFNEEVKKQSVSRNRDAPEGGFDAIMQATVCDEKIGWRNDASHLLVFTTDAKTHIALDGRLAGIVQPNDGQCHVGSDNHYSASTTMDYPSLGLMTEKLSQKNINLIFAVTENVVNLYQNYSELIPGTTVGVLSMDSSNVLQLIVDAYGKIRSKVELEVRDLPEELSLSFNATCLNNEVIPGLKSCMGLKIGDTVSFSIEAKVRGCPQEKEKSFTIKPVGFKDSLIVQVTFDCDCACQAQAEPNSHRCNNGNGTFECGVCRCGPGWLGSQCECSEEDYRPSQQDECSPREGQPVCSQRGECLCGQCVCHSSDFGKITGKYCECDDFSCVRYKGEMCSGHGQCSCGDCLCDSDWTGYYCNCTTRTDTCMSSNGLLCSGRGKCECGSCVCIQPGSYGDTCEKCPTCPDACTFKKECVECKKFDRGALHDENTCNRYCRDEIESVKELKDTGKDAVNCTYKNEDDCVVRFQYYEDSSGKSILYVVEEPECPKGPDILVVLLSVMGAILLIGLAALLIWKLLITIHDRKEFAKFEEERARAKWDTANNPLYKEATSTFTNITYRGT

| Structure (SMILES) | IC50 [nM] | IC50 Ratio Relative to Hood et al. |
| --- | --- | --- |
| NCCOC(=O)NCCS(=O)(=O)N[C@@H](CNC(=O)c1ccc(OCCNC2=NCCCN2)cc1)C(=O)O [Example 4, 4-[2-(3,4,5,6-Tetrahydropyrimidin-2-ylamino)ethyloxy]benzoyl-2-(S)-[N-(3-amino-ethyl-1-carbamyl)]-aminoethylsulfonylamino-β-alanine] | 3.64 ± 0.3 | 4.3 ± 0.6 |
| NCCCCOC(=O)NCCS(=O)(=O)N[C@@H](CNC(=O)c1ccc(OCCNC2=NCCCN2)cc1)C(=O)O [Example 8, 4-[2-(3,4,5,6-Tetrahydropyrimidin-2-ylamino)ethyloxy]benzoyl-2-(S)-[N-(3-amino-butyl-1-carbamyl)]-aminoethylsulfonylamino-β-alanine] | 3.13 ± 0.33 | 1.3 ± 0.5 |
| NCCS(=O)(=O)N[C@@H](CNC(=O)c1ccc(OCCNC2=NCCCN2)cc1)C(=O)O [Hood et al., 4-[2-(3,4,5,6-tetrahydropyrimidin-2-ylamino)ethyloxy]benzoyl-2-(S)-aminoethylsulfonylamino-β-alanine, reference compound] | 14.1 ± 1.4 | – |
| NCCCOC(=O)NCCS(=O)(=O)N[C@@H](CNC(=O)c1ccc(OCCNC2=NCCCN2)cc1)C(=O)O [Example 6] | 6.68 ± 0.54 | 3.6 ± 0.7 |

Compounds with a lower IC50, results first:

| IC50 [nM] | IC50 Ratio Relative to Hood et al. | Structure (SMILES) |
| --- | --- | --- |
| 1.02 ± 0.12 | 11.2 ± 2.4 | CCCCOC(=O)NCCCOC(=O)NCCS(=O)(=O)N[C@@H](CNC(=O)c1ccc(OCCNC2=NCCCN2)cc1)C(=O)O [Example 5, 4-[2-(3,4,5,6-Tetrahydropyrimidin-2-ylamino)ethyloxy]benzoyl-2-(S)-[N-(3-butyloxycarbonylamino-propyl-1-carbamyl)]-aminoethylsulfonylamino-β-alanine] |
| 0.72 ± 0.08 | 17.3 ± 4.7 | CCCCOC(=O)NCC(C)(C)COC(=O)NCCS(=O)(=O)N[C@@H](CNC(=O)c1ccc(OCCNC2=NCCCN2)cc1)C(=O)O [Example 1, 4-[2-(3,4,5,6-Tetrahydropyrimidin-2-ylamino)ethyloxy]benzoyl-2-(S)-[N-(3-butyloxycarbonylamino-neopenta-1-carbamyl)]-aminoethylsulfonylamino-β-alanine] |
| 1.7 ± 0.2 | 8.8 ± 3.5 | CCCCOC(=O)NCCOC(=O)NCCS(=O)(=O)N[C@@H](CNC(=O)c1ccc(OCCNC2=NCCCN2)cc1)C(=O)O [Example 3, 4-[2-(3,4,5,6-Tetrahydropyrimidin-2-ylamino)ethyloxy]benzoyl-2-(S)-[N-(3-butyloxycarbonylamino-ethyl-1-carbamyl)]-aminoethylsulfonylamino-β-alanine] |
| 1.34 ± 0.14 | 10.8 ± 2.7 | CCCCOC(=O)NCCCCOC(=O)NCCS(=O)(=O)N[C@@H](CNC(=O)c1ccc(OCCNC2=NCCCN2)cc1)C(=O)O [Example 7, 4-[2-(3,4,5,6-Tetrahydropyrimidin-2-ylamino)ethyloxy]benzoyl-2-(S)-[N-(3-butyloxycarbonylamino-butyl-1-carbamyl)]-aminoethylsulfonylamino-β-alanine] |
| 2.94 ± 0.19 | 7.0 ± 0.7 | CC(C)(CN)COC(=O)NCCS(=O)(=O)N[C@@H](CNC(=O)c1ccc(OCCNC2=NCCCN2)cc1)C(=O)O [Example 2, 4-[2-(3,4,5,6-Tetrahydropyrimidin-2-ylamino)ethyloxy]benzoyl-2-(S)-[N-(3-amino-neopenta-1-carbamyl)]-aminoethylsulfonylamino-β-alanine Hydrochloride] |
